Source: patent publication US20110200626A1, “IQGAP3 EPITOPE PEPTIDES AND VACCINES CONTAINING THE SAME” (Oncotherapy Science, Inc., priority 2008, published 2011)
Ends that are not written are not given here.

What was measured:
peptide-pulsed T2 cells [1] = test: IFN-gamma ELISPOT assay on CTLs induced with HLA-A*0201 restricted peptides; assay type: cell-based, human; settings: against peptide-pulsed target cells compared with control without peptide, listed as IQGAP3-A02-10-1424
peptide-pulsed T2 cells [2] = test: IFN-gamma ELISA assay on CTL lines (HLA-A*0201); assay type: cell-based, human; settings: target cells pulsed with corresponding peptide vs without peptide

## SLTAhSLLPL (SLTAHSLLPL; not fully specified (residue 5); printed as SLTAhSLLPL) [SEQ ID NO: 141]
peptide-pulsed T2 cells [1]
  IFN-gamma production of peptide-induced CTLs (ELISPOT): potent IFN-gamma production ability
peptide-pulsed T2 cells [2]
  IFN-gamma production of established CTL lines (ELISA): potent IFN-gamma production
